Data from patent US20260108547A1, “LEVERAGING L-FUCOSE-MEDIATED SIGNALING TO INDUCE MONOCYTE-DERIVED DENDRITIC CELL POLARIZATION” (H. LEE MOFFITT CANCER CENTER AND RESEARCH INSTITUTE, INC., priority 2022, published 2026).

How the values were obtained:
SW1 tumors = assay: DC clustering by CD11c in SW1 tumors from mice treated +/- L-fucose; settings: mouse, in vivo
HLA-DRB1 = assay: qRT-PCR and immunoblot of HLA-DRB1 mRNA and protein levels in melanoma cells; assay type: cell-based, human; settings: 250 μM
Procedure: Cells were lysed on ice in RIPA lysis buffer (25 mM Tris-HCl pH 7.6, 150 mM NaCl, 5 mM EDTA, 1% NP-40 or 1% Triton X-100, 1% sodium deoxycholate, 0.1% SDS in diH2O+protease and phosphatase inhibitors (ThermoFisher Scientific (Waltham, MA)), briefly sonicated, pelleted, and the resulting lysates were normalized by protein concentration using DC assay (BioRad Laboratories, (Hercules, CA)). The indicated samples were subjected to (12%) SDS-PAGE and immunoblot analysis using the indicated antibodies. Immunoblot imaging and analysis was performed using either an Odyssey FC scanner and ImageStudio (LiCor Biosciences, Lincoln, NE) or film.
RNA from cells subjected to the indicated treatments was extracted using Gene Elute Mammalian Total RNA Extraction System (Millipore Sigma (St. Louis, MO)). RNA was reversed transcribed to cDNA using High-Capacity cDNA Reverse Transcription Kit (ThermoFisher Scientific (Waltham, MA)). qRT-PCR analysis was performed using FastStart Universal SYBR Green Master Mix (Rox) (Roche Diagnostics, (Indianapolis, IN)) using a BioRad CFX96 Real-time system (BioRad Laboratories, (Hercules, CA)). The qRT-PCR cycles used were as follows: 95° C. for 10 min, 35 cycles of 95° C. for 15 seconds, 55° C. for 60 seconds,
and 72° C. for 30 seconds. Expression of the indicated genes was normalized to histone H3A expression. […]

BMMC = assay: Flow cytometric DC polarization of BMMC; assay type: cell-based
Procedure: We next investigated the effect of L-fucose on dendritic cell differentiation. To test whether L-fucose affected immature or mature myeloid cells preferentially, BMMC were treated with L-fucose at various stages of development, pre=before maturation cocktail, concurrent=during maturation cocktail or post=after maturation cocktail (FIG. 23A). […] We next sought to determine if L-fucose equally affected subpopulations of DCs. By flow cytometric analysis we were able to determine that moDC are affected most by the modulation of fucosylation in immature myeloid cell populations.

SW1 tumor cells = assay: Co-culture of pretreated moDCs with GFP-expressing SW1 tumor cells (GFP loss, LDH release); assay type: cell-based, mouse; settings: loss of GFP fluorescence
Excerpt: We next sought to determine if the change in phagocytosis we observe in the bead uptake assay was accompanied with increased cytotoxic tendencies in the L-fucose-treated moDCs. To this end we co-cultured pretreated moDCs with GFP-expressing SW1 tumor cells to observe (FIG. 26C) loss of GFP fluorescence correlating with SW1 and (FIG. 26D) release of LDH as markers of cell death.

SM1 tumors = assay: Volumetric tumor growth, SM1 melanoma in C57BL/6 mice; assay type: in vivo, mouse; settings: SM1 model
Excerpt: All animals were housed at the Vincent A. Stabile Research building animal facility at H. Lee Moffitt Cancer Center & Research Institute, which is fully accredited by the Association for Assessment and Accreditation of Laboratory Animal Care International (AAALAC, #434), and are managed in accordance with the Guide for the Care and Use of Laboratory Animals (“The Guide”), the Animal Welfare Regulations Title 9 Code of Federal Regulations Subchapter A, “Animal Welfare”, Parts 1-3 (AWR), the Public Health Service Policy on Humane Care and Use of Laboratory Animals (PHS Policy), and by the USF Institutional Animal Care and Use Committee's Principles and Procedures of Animal Care and Use (IACUC Principles). The experiments and protocols detailed in this study received institutional approval by the Moffitt IACUC (RIS00001625). Four-to-six-week-old female C3H/HeN and male C57BL6 mice were purchased from Charles Rivers Laboratories for the indicated experiments. Four-to-six-week-old male NSG mice from the Lau laboratory breeding colony were used for the indicated experiments. Power calculations were used to determine mouse cohort sizes to detect significant changes in tumor sizes. […] Mouse tumor volumes were measured using length, width and depth divided by 2. […]

SMILES: C[C@H](O)[C@@H](O)[C@@H](O)[C@H](O)C=O [L-fucose]
- DC clustering by CD11c in SW1 tumors (SW1 tumors): increased DC clustering
- HLA-DRB1 mRNA and protein levels (HLA-DRB1): remained unchanged
- polarization of myeloid cells (DC subpopulations) (BMMC; flow cytometric analysis): polarizes myeloid cells towards a moDC phenotype
- absolute DC numbers (BMMC; flow cytometric profiling of BMMCs): without affecting absolute DC numbers
- DC polarization of BMMC (BMMC; treated pre, concurrent or post maturation cocktail): leads to DC polarization of BMMC at any stage of myeloid development
- phenotype of moDCs in co-culture with SW1 tumor cells (SW1 tumor cells): cytotoxic-like phenotype
- tumor suppression, single agent (SM1 tumors): less tumor suppressive than anti-PD1 alone
- tumor suppression in combination with anti-PD1 (SM1 tumors; L-fuc in combination with anti-PD1): augmented durable suppression
